How the values were obtained:
human P2X7 = human P2X7 (Homo sapiens (Human), UniProt Q99572); test: Human P2X7 functional assay (Ca2+ influx, Fluo-4, FDSS); assay type: cell-based; settings: antagonistic activity with respect to the human P2X7 receptor; BzATP final concentration 80 microM
Method in brief: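 HEK293 cells stably expressing C-terminally FLAG-tagged human P2X7, loaded with Fluo-4. Compounds were preincubated for 10 min at room temperature, then 80 μM BzATP (final) was added and Ca2+ fluorescence read at 540 nm (480 nm excitation) by FDSS. IC50 values come from 7-point curves, duplicate wells.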

rat P2X7 = rat P2X7 (Rattus norvegicus (Rat), UniProt Q64663); test: Rat P2X7 functional assay (Ca2+ influx, Fluo-4, FDSS); assay type: cell-based; settings: HEK293 cells stably expressing rat P2X7; BzATP final 10 microM; 7-point dose-response; read-out: Antagonistic activities with respect to the rat P2X7 receptor (IC50)
Sequence of rat P2X7 (Q64663 whole entry): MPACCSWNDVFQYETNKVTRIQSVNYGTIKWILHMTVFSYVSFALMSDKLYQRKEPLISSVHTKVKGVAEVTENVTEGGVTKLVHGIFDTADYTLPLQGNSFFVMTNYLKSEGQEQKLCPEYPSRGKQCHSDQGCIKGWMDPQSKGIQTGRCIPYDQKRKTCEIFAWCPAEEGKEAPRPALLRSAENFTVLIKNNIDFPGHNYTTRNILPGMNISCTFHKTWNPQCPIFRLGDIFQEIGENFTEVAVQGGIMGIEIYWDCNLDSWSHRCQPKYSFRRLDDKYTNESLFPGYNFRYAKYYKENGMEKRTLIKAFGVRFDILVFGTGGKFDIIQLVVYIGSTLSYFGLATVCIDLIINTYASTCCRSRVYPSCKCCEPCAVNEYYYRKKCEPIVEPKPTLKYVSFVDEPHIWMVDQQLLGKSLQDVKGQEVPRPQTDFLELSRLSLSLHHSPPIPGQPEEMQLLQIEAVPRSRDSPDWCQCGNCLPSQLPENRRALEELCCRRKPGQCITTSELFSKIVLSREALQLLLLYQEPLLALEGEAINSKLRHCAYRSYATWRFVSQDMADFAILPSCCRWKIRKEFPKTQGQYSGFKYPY
Method: Rat P2X7 Functional Assay
The functional activity of compounds was determined by measuring changes in intracellular calcium concentration using a Ca^2+-sensitive fluorescent dye, Fluo-4 (Molecular Probes). The changes in fluorescent signal were monitored by the cell imaging technology by Hamamatsu Photonics's Functional Drug Screening System (FDSS). Increases in intracellular Ca^2+ concentration were readily detected upon activation with BzATP.
HEK293 cells stably expressing rat P2X7 (GenBank accession number NM_019256) were grown in Corning CellBIND cell culture flasks, in a 5% CO2 humidified incubator to about 80% confluence. Media composition consisted of Dulbecco's Modified Eagle Medium (high glucose), 10% fetal bovine serum ([…]), 100 units/[…] Penicillin, 100 microg/mL Streptomycin and 250 microg/mL Geneticine.
1. […] Plate-out HEK293-rat P2X7 cells (40 microL medium containing 5,000 cells per well) into poly-D-lysine coated 384-well plates (BD Falcon) at 24 h prior to assay.
2. Incubate at 37° C. in 5% CO2.
3. Incubate the plate at 37° C. in 5% CO2 for 1 h.
5. Test compounds were prepared at 100× the test concentration in DMSO by serial dilution with Biomek-FX liquid handling instrument. 33× diluted compound solutions in assay buffer were prepared in intermediate compound plate with Biomek-NX liquid handling instrument. A further 3× dilution occurred in below steps 6 and 7.
6. Add 20 microL of 33× diluted compound solutions into each well and leave the plate for 10 min under the dark at room temperature.
7. Measure activity by FDSS as follows: • Set the assay plate on the stacker of FDSS. • Start the detection of fluorescence intensity at 540 nm by 480 nm exicitation. • After 30 seconds, add 20 microL of assay buffer containing 30 microM BzATP (final 10 microM).
IC50 values for compounds of the present invention were determined from 7-point dose-response studies. Curves were generated using the average of duplicate wells for each data point. Finally, the IC50 values are calculated with the best-fit dose curve determined by XLfit (ID Business Solutions Ltd.).

Sequence of human P2X7 (Q99572 whole entry): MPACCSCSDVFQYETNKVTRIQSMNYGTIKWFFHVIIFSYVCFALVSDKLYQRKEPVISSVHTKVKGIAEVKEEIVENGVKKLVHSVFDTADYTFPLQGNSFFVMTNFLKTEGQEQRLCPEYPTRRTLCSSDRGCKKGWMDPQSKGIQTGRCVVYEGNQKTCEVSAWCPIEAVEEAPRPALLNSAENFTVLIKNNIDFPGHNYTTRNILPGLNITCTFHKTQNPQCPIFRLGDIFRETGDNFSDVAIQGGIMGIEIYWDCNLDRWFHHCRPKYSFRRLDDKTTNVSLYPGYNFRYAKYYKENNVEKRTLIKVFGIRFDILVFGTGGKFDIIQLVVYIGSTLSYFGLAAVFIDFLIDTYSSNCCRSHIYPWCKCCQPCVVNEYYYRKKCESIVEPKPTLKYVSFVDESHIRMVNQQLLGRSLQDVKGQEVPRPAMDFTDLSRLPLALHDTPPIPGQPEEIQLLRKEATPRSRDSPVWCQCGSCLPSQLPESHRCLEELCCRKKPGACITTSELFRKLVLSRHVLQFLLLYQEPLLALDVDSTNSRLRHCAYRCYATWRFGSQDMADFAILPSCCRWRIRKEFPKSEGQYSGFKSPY

IC50 (human P2X7) [nM]	IC50 (rat P2X7) [nM]	SMILES
< 50	< 1000	Cc1cc(Cl)cc(Cl)c1CNC(=O)C1CCC(O)(CO)c2ncccc21 (stereo not drawn) [Example 33, N-(2,4-dichloro-6-methylbenzyl)-8-hy-droxy-8-(hydroxymethyl)-5,6,7,8-tetra-hydroxuqinoline-5-carboxamide]
< 50	< 1000	Cc1cc(Cl)cc(Cl)c1CNC(=O)C1(F)CCC(O)(CO)c2ncccc21 (stereo not drawn) [Example 34, N-(2,4-dichloro-6-methylbenzyl)-5-fluoro-8-hydroxy-8-(hydroxymethyl)-5,6,7,8-tetrahydroquinoline-5-carboxamide]
< 50	< 1000	O=C(NCc1cccc(C(F)(F)F)c1Cl)C1(F)CCC(O)(CO)c2ncccc21 (stereo not drawn) [Example 35, N-(2-chloro-3-(trifluoromethyl)benzyl)-5-fluoro-8-hydroxy-8-(hydroxymethyl)-5,6,7,8-tetrahydroquinoline-5-carboxamide]
< 50	< 1000	O=C(NCc1cccc(Cl)c1Cl)C1(F)CCC(O)(CO)c2ncccc21 (stereo not drawn) [Example 36, N-(2,3-dichlorobenzyl)-5-fluoro-8-hy-droxy-8-(hydroxymethyl)-5,6,7,8-tetra-hydroquinoline-5-carboxamide]
< 50	< 1000	O=C(NCc1ccc(Cl)cc1Cl)C1(F)CCC(O)(CO)c2ncccc21 (stereo not drawn) [Example 37, N-(2,4-dichlorobenzyl)-5-fluoro-8-hy-droxy-8-(hydroxymethyl)-5,6,7,8-tetra-hydroquinoline-5-carboxamide]
101 to 300	< 1000	O=C(NCc1ccc(Cl)cc1Cl)C1(F)CC(O)(CO)c2ncccc21 (stereo not drawn) [Example 38, N-(2,4-dichlorobenzyl)-5-fluoro-7-hydroxy-7-(hydroxymethyl)-6,7-dihydro-5H-cyclopenta[b]pyridine-5-carboxamide]
< 50	< 1000	COCC1(O)CCC(F)(C(=O)NCc2c(C)cc(Cl)cc2Cl)c2cccnc21 (stereo not drawn) [Example 39, N-(2,4-dichloro-6-methylbenzyl)-5-fluoro-8-hydroxy-8-(methoxymethyl)-5,6,7,8-tetrahydro-quinoline-5-carboxamide]
< 50	< 1000	COCC1(O)CCC(F)(C(=O)NCc2cccc(C(F)(F)F)c2Cl)c2cccnc21 (stereo not drawn) [Example 40, N-(2-chloro-3-(tri-fluoromethyl)benzyl)-5-fluoro-8-hydroxy-8-(methoxy-methyl)-5,6,7,8-tetra-hydroquinoline-5-carboxamide]
< 50	< 1000	Cc1cc(Cl)cc(Cl)c1CNC(=O)C1CCC(O)(CN)c2ncccc21 (stereo not drawn) [Example 43, 8-(aminomethyl)-N-(2,4-dichloro-6-meth-ylbenzyl)-8-hydroxy-5,6,7,8-tetrahydroquinoline-5-carboxamide]
< 50	< 1000	CNCC1(O)CCC(C(=O)NCc2c(C)cc(Cl)cc2Cl)c2cccnc21 (stereo not drawn) [Example 44, N-(2,4-dichloro-6-methylbenzyl)-8-hydroxy-8-((methyl-amino)methyl)-5,6,7,8-tetrahydro-quinoline-5-carboxamide]
< 50	< 1000	Cc1cc(Cl)cc(Cl)c1CNC(=O)C1(F)CCC(O)(CN)c2ncccc21 (stereo not drawn) [Example 45, 8-(aminomethyl)-N-(2,4-dichloro-6-methylbenzyl)-5-fluoro-8-hydroxy-5,6,7,8-tetrahydro-quinoline-5-carboxamide]
< 50	< 1000	CNCC1(O)CCC(F)(C(=O)NCc2c(C)cc(Cl)cc2Cl)c2cccnc21 (stereo not drawn) [Example 46, N-(2,4-dichloro-6-methylbenzyl)-5-fluoro-8-hydroxy-8-((methyl-amino)methyl)-5,6,7,8-tetra-hydroquinoline-5-carboxamide]
< 50	< 1000	Cc1cc(Cl)cc(Cl)c1CNC(=O)C1(F)CCC(O)(CN(C)C)c2ncccc21 (stereo not drawn) [Example 47, N-(2,4-dichloro-6-meth-ylbenzyl)-8-((dimeth-ylamino)meth-yl)-5-fluoro-8-hydroxy-5,6,7,8-tetrahydroquinoline-5-carboxamide]
< 50	< 1000	NCC1(O)CCC(F)(C(=O)NCc2cccc(C(F)(F)F)c2Cl)c2cccnc21 (stereo not drawn) [Example 48, 8-(aminomethyl)-N-(2-chloro-3-(trifluoro-methyl)benzyl)-5-fluoro-8-hy-droxy-5,6,7,8-tetra-hydroquinoline-5-carboxamide]
< 50	< 1000	CNCC1(O)CCC(F)(C(=O)NCc2cccc(C(F)(F)F)c2Cl)c2cccnc21 (stereo not drawn) [Example 49, N-(2-chloro-3-(trifluorometh-yl)benzyl)-5-fluoro-8-hydroxy-8-((methylamino)meth-yl)-5,6,7,8-tetrahydroquinoline-5-carboxamide]

Further lines, the compound ahead of its results:

SMILES	IC50 (human P2X7) [nM]	IC50 (rat P2X7) [nM]
Cc1cc(Cl)cc(Cl)c1CNC(=O)C1(F)CCC(O)c2ncccc21 (stereo not drawn) [Example 18, N-(2,4-dichloro-6-methyl-benzyl)-5-fluoro-8-hydroxy-5,6,7,8-tetrahydroquinoline-5-carboxamide]	< 50	< 1000
O=C(NCc1cccc(C(F)(F)F)c1Cl)C1(F)CCC(O)c2ncccc21 (stereo not drawn) [Example 19, N-(2-chloro-3-(trifluoro-methyl)benzyl)-5-fluoro-8-hydroxy-5,6,7,8-tetrahydro-quinoline-5-carboxamide]	< 50	< 1000
O=C(NCc1c(Cl)cc(Cl)cc1CO)C1(F)CCC(O)c2ncccc21 (stereo not drawn) [Example 20, N-(2,4-dichloro-6-(hydroxymethyl)benzyl)-5-fluoro-8-hydroxy-5,6,7,8-tetrahydro quinoline-5-carboxamide]	< 50	< 1000
O=C(NCc1cccc(Cl)c1Cl)C1(F)CCC(O)c2ncccc21 (stereo not drawn) [Example 21, N-(2,3-dichlorobenzyl)-5-fluoro-8-hydroxy-5,6,7,8-tetrahydroquinoline-5-carboxamide]	< 50	< 1000
O=C(NCc1ccc(Cl)cc1Cl)C1(F)CCC(O)c2ncccc21 (stereo not drawn) [Example 22, N-(2,4-dichlorobenzyl)-5-fluoro-8-hydroxy-5,6,7,8-tetrahydroquinoline-5-carboxamide]	< 50	< 1000
COCc1cc(Cl)cc(Cl)c1CNC(=O)C1(F)CCC(O)c2ncccc21 (stereo not drawn) [Example 23, N-(2,4-dichloro-6-(methoxy-methyl)benzyl)-5-fluoro-8 hydroxy-5,6,7,8-tetrahydro-quinoline-5-carboxamide]	< 50	< 1000
Cc1cc(Cl)cc(Cl)c1CNC(=O)C1(O)CCC(O)c2ncccc21 (stereo not drawn) [Example 24, N-(2,4-dichloro-6-methyl-benzyl)-5,8-dihydroxy-5,6,7,8-tetrahydroquinoline-5-carboxamide]	< 50	< 1000
O=C(NCc1cccc(C(F)(F)F)c1Cl)C1(O)CCC(O)c2ncccc21 (stereo not drawn) [Example 25, N-(2-chloro-3-(trifluoro-methyl)benzyl)-5,8-dihydroxy-5,6,7,8-tetrahydroquinoline-5-carboxamide]	101 to 300	< 1000
Cc1cc(Cl)cc(Cl)c1CNC(=O)C1CC(O)c2ncccc21 (stereo not drawn) [Example 26, N-(2,4-dichloro-6-methyl-benzyl)-7-hydroxy-6,7-dihydro-5H-cyclopenta[b] pyridine-5-carboxamide]	< 50	< 1000
O=C(NCc1cccc(C(F)(F)F)c1Cl)C1CC(O)c2ncccc21 (stereo not drawn) [Example 27, N-(2-chloro-3-(trifluoro-methyl)benzyl)-7-hydroxy-6,7-dihydro-5H-cyclopenta[b] pyridine-5-carboxamide]	< 50	< 1000
O=C(NCc1cccc(Cl)c1Cl)C1CC(O)c2ncccc21 (stereo not drawn) [Example 28, N-(2,3-dichlorobenzyl)-7-hydroxy-6,7-dihydro-5H-cyclo-penta[b]pyridine-5-carboxamide]	50 to 100	< 1000
O=C(NCc1ccc(Cl)cc1Cl)C1(F)CC(O)c2ncccc21 (stereo not drawn) [Example 29, N-(2,4-dichlorobenzyl)-5-fluoro-7-hydroxy-6,7-dihydro-5H-cyclopenta[b]pyridine-5-carboxamide]	< 50	< 1000
